Like-named read-outs stand apart in the source and are kept apart here.
Experiments:
HUVEC [1] = test: Wound-healing/migration assay; type: cell-based, human; conditions: 50 ng/mL VEGF, apoEdp 6–100 µM, three independent experiments; read-out: IC50, inhibition of VEGF-induced HUVEC wound-healing migration
Method: An important angiogenic phenotype of ECs induced by VEGF is cell migration. The major aspects of VEGF action on ECs are its ability to act as a chemoattractant and to stimulate the angiogenic morphogenesis. […] Cell migration was examined after simulation of an artificial wound by perturbation of a cell monolayer using a 1-mL pipette tip. […] (Fig. 2C).
Figure 2 ApoEdp inhibits wound-healing migration in vitro. Monolayers of HUVECs were scraped and incubated in medium containing 50 ng/mL VEGF in the presence or absence of various concentrations of apoEdp. VEGF stimulated the migration of HUVECs in the scraped area. Representative photomicrographs of cells treated with (A) VEGF alone or with (B) VEGF and apoEdp together are shown. Solid lines indicate the initial scraping. […] The bar diagram is the quantitative measurement of cell migration inside the scraped area. The data shown are representative of three independent experiments. ** p<0. 01; and *** p<0.001.
To determine the effect of apoEdp on EC migration induced by VEGF, wound-healing assays were performed using HUVEC cells. Cells were allowed to grow to confluency on 6-well plates and washed twice with PBS. […] Migration of the cells into the wounded area was photographed with an Olympus U-RLF-T microscope and counted. […]

HUVEC [2] = type: cell-based, human
Excerpt: The cellular mechanisms of angiogenesis involve motility and alignment of ECs to form a capillary tube-like network on matrigel. Thus, we assessed whether or not apoEdp impaired EC differentiation in the tube formation assay as described in the Materials and Methods. The numbers of tubular structures (Fig. 3A) were quantitatively analyzed. […] “Percentage (%) of inhibition” in Fig. 3C is the mean number (± SEM) of tubules expressed as a proportion of that in the VEGF control group. ** p<0.01 and *** p<0.001.
Figure 3 ApoEdp inhibited capillary tubule formation (in vitro angiogenesis). […] Tubular structures were quantitated by manual counting under low power fields. […] (C) “Percentage (%) of inhibition” is the mean number (± SEM) of tubules expressed as a proportion of that in the VEGF control group. ** p<0.01 and *** p<0.001. […]
Matrigel (Sigma Aldrich, St Louis, MO) was thawed overnight on ice. […] After 12–16 hr, microtubule formation was assessed with an inverted photomicroscope and the images were photographed using Olympus U-RLF-T microscope. Manual counting at low power fields was used to quantitate tubular structures and percentage of inhibition was expressed using VEGF control wells as 100%.

Ac-LRKLRKRLLLRKLRKRLL-NH2 [apoEdp] gave an IC50 (HUVEC [1]) of about 21.5 µM and an IC50 (HUVEC [2]) of 9 µM.

— paper PMC3017052, “A Novel Peptide Derived from Human Apolipoprotein E Is an Inhibitor of Tumor Growth and Ocular Angiogenesis” (PLoS ONE, 2011)
